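Tested at 5 concentrations; 48 h exposure; 96-well plates; endpoints linearly interpolated, else capped at highest concentration. Abbreviation: GI50, concentration required for 50% inhibition of growth. At the TGI there is no net growth.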
Tests used:
Assay in all cases: inhibition of tumour cell growth, NCI panel, 48 h
[1] = test system: NCI-H522 lung
[2] = test system: A498 renal
[3] = test system: HT29 colon
[4] = test system: LOX IMVI melanoma
[5] = test system: MDA-MB-231 breast
[6] = test system: SN12C renal
[7] = test system: NCI-H460 lung
[8] = test system: HS 578T breast
[9] = test system: A549 NSCLC
[10] = test system: BT-549 breast
[11] = test system: SF-295 CNS
[12] = test system: SF-539 CNS
[13] = test system: 786-0 renal
[14] = test system: RXF 393 renal
[15] = test system: SK-MEL-2 melanoma
[16] = test system: EKVX NSCLC
[17] = test system: SK-MEL-5 melanoma
[18] = test system: SK-MEL-28 melanoma
[19] = test system: ACHN renal
[20] = test system: K-562 leukemia
[21] = test system: OVCAR-8 ovarian
[22] = test system: U251 CNS
[23] = test system: SNB-75 CNS
[24] = test system: NCI/ADR-RES ovarian
[25] = test system: UACC-62 melanoma
[26] = test system: SK-OV-3 ovarian
[27] = test system: NCI-H226 lung
[28] = test system: TK-10 renal
[29] = test system: HCC-2998 colon
[30] = test system: COLO 205 colon
[31] = test system: UO-31 renal
[32] = test system: MCF7 breast
[33] = test system: OVCAR-5 ovarian
[34] = test system: NCI-H23 lung
[35] = test system: HOP-92 NSCLC
[36] = test system: M14 melanoma
[37] = test system: DU-145 prostate
[38] = test system: HOP-62 NSCLC
[39] = test system: CAKI-1 renal
[40] = test system: CCRF-CEM leukemia
[41] = test system: HCT-15 colon
[42] = test system: MDA-MB-435
[43] = test system: IGROV1 ovarian
[44] = test system: MOLT-4 leukemia
[45] = test system: SNB-19 CNS
[46] = test system: RPMI-8226 leukemia
[47] = test system: HCT-116 colon
[48] = test system: T-47D breast
[49] = test system: SW-620 colon
[50] = test system: SR leukemia
[51] = test system: UACC-257 melanoma
[52] = test system: HL-60(TB) leukemia
[53] = test system: SF-268 CNS
[54] = test system: OVCAR-4 ovarian
[55] = test system: PC-3 prostate
[56] = test system: KM12 colon
[57] = test system: OVCAR-3 ovarian
[58] = test system: MALME-3M melanoma

CSc1ccc(C(=O)/C=C/c2ccc(F)cc2)cc1
GI50 [1]: 38.9 µM | TGI [1]: > 100 µM | GI50 [2]: 26.7 µM | TGI [2]: 95.5 µM | GI50 [3]: 19.5 µM | TGI [3]: > 100 µM | GI50 [4]: 29.1 µM | TGI [4]: 83.4 µM | GI50 [5]: 74.6 µM | TGI [5]: > 100 µM | GI50 [6]: > 100 µM | TGI [6]: > 100 µM | GI50 [7]: 70.2 µM | TGI [7]: > 100 µM | GI50 [8]: > 100 µM | TGI [8]: > 100 µM | GI50 [9]: 64.4 µM | TGI [9]: > 100 µM | GI50 [10]: 40 µM | TGI [10]: > 100 µM | GI50 [11]: 33.4 µM | TGI [11]: > 100 µM | GI50 [12]: 49.6 µM | TGI [12]: > 100 µM | GI50 [13]: > 100000 nM | TGI [13]: > 100 µM | GI50 [14]: > 100000 nM | TGI [14]: > 100 µM | GI50 [15]: > 100000 nM | TGI [15]: > 100 µM | GI50 [16]: > 100 µM | TGI [16]: > 100 µM | GI50 [17]: 75 µM | TGI [17]: > 100 µM | GI50 [18]: 69.3 µM | TGI [18]: > 100 µM | GI50 [19]: > 100000 nM | TGI [19]: > 100 µM | GI50 [20]: 25.9 µM | TGI [20]: 65.3 µM | GI50 [21]: > 100 µM | TGI [21]: > 100 µM | GI50 [22]: 32.9 µM | TGI [22]: > 100 µM | GI50 [23]: 7.05 µM | TGI [23]: > 100 µM | GI50 [24]: > 100 µM | TGI [24]: > 100 µM | GI50 [25]: > 100000 nM | TGI [25]: > 100 µM | GI50 [26]: > 100 µM | TGI [26]: > 100 µM | GI50 [27]: 57.4 µM | TGI [27]: > 100 µM | GI50 [28]: 85.3 µM | TGI [28]: > 100 µM | GI50 [29]: 41.8 µM | TGI [29]: > 100 µM | GI50 [30]: > 100000 nM | TGI [30]: > 100 µM | GI50 [31]: > 100000 nM | TGI [31]: > 100 µM | GI50 [32]: 28.5 µM | TGI [32]: 70 µM | GI50 [33]: 99.6 µM | TGI [33]: > 100 µM | GI50 [34]: > 100 µM | TGI [34]: > 100 µM | GI50 [35]: 75.9 µM | TGI [35]: > 100 µM | GI50 [36]: > 100000 nM | TGI [36]: > 100 µM | GI50 [37]: 54.8 µM | TGI [37]: > 100 µM | GI50 [38]: > 100 µM | TGI [38]: > 100 µM | GI50 [39]: > 100000 nM | TGI [39]: > 100 µM | GI50 [40]: 25.5 µM | TGI [40]: 82.6 µM | GI50 [41]: 29.4 µM | TGI [41]: > 100 µM | GI50 [42]: 33.5 µM | TGI [42]: 78.3 µM | GI50 [43]: 28.2 µM | TGI [43]: 65.9 µM | GI50 [44]: 33.9 µM | TGI [44]: 94.4 µM | GI50 [45]: > 100 µM | TGI [45]: > 100 µM | GI50 [46]: 22.9 µM | TGI [46]: 54.2 µM | GI50 [47]: 20.7 µM | TGI [47]: 36.6 µM | GI50 [48]: 96.4 µM | TGI [48]: > 100 µM | GI50 [49]: 24.8 µM | TGI [49]: 70.8 µM | GI50 [50]: 25.7 µM | TGI [50]: 51.5 µM | GI50 [51]: > 100000 nM | TGI [51]: > 100 µM | GI50 [52]: 48.9 µM | TGI [52]: > 100 µM | GI50 [53]: 75.9 µM | TGI [53]: > 100 µM | GI50 [54]: 76.2 µM | TGI [54]: > 100 µM | GI50 [55]: 49.9 µM | TGI [55]: > 100 µM | GI50 [56]: 70.9 µM | TGI [56]: > 100 µM

CCOC(=O)c1cn2ncnc(Oc3ccc(NC(=O)NCCN(CC)CC)c(Cl)c3)c2c1C
GI50 [1]: 2.3 µM | TGI [1]: 5.92 µM | GI50 [2]: 2.15 µM | TGI [2]: 8.08 µM | GI50 [3]: 2.26 µM | TGI [3]: 5.45 µM | GI50 [4]: 1.85 µM | TGI [4]: 3.55 µM | GI50 [5]: 2.1 µM | TGI [5]: 4.37 µM | GI50 [6]: 3.34 µM | TGI [6]: 13.3 µM | GI50 [7]: 9.1 µM | TGI [7]: 24.4 µM | GI50 [8]: 3.88 µM | TGI [8]: 21.7 µM | GI50 [9]: 15.8 µM | TGI [9]: 40.2 µM | GI50 [10]: 4.96 µM | TGI [10]: 19.5 µM | GI50 [11]: 2.14 µM | TGI [11]: 4.71 µM | GI50 [12]: 1.76 µM | TGI [12]: 3.45 µM | GI50 [13]: 1890 nM | TGI [13]: 3.75 µM | GI50 [14]: 1630 nM | TGI [14]: 3.37 µM | GI50 [15]: 2360 nM | TGI [15]: 5.38 µM | GI50 [16]: 3.79 µM | TGI [16]: 21.5 µM | GI50 [17]: 1.81 µM | TGI [17]: 3.3 µM | GI50 [57]: 8.12 µM | TGI [57]: 35.8 µM | GI50 [18]: 1.69 µM | TGI [18]: 3.15 µM | GI50 [19]: 2310 nM | TGI [19]: 5.54 µM | GI50 [20]: 2.01 µM | TGI [20]: 4.48 µM | GI50 [21]: 5.66 µM | TGI [21]: > 100 µM | GI50 [22]: 2.38 µM | TGI [22]: 6.24 µM | GI50 [23]: 3.14 µM | TGI [23]: 31.5 µM | GI50 [24]: 4.26 µM | TGI [24]: 64.5 µM | GI50 [25]: 1950 nM | TGI [25]: 3.72 µM | GI50 [26]: 20.7 µM | TGI [26]: 50.2 µM | GI50 [27]: 17.9 µM | TGI [27]: > 100 µM | GI50 [28]: 2.91 µM | TGI [28]: 11.1 µM | GI50 [29]: 2.01 µM | TGI [29]: 4.68 µM | GI50 [30]: 2010 nM | TGI [30]: 3.78 µM | GI50 [58]: 1700 nM | TGI [58]: 3.3 µM | GI50 [31]: 1550 nM | TGI [31]: 3.19 µM | GI50 [32]: 2.14 µM | TGI [32]: 5.21 µM | GI50 [33]: 3.97 µM | TGI [33]: 16.1 µM | GI50 [34]: 10.4 µM | TGI [34]: 26 µM | GI50 [35]: 1.76 µM | TGI [35]: 6.19 µM | GI50 [36]: 1890 nM | TGI [36]: 3.75 µM | GI50 [37]: 7.1 µM | TGI [37]: 55.1 µM | GI50 [38]: 12 µM | TGI [38]: 29.5 µM | GI50 [39]: 1900 nM | TGI [39]: 3.82 µM | GI50 [40]: 2.33 µM | TGI [40]: 6.73 µM | GI50 [41]: 1.84 µM | TGI [41]: 4.07 µM | GI50 [42]: 1.87 µM | TGI [42]: 3.51 µM | GI50 [43]: 6.71 µM | TGI [43]: 26.2 µM | GI50 [44]: 2.36 µM | TGI [44]: 5.67 µM | GI50 [45]: 10.5 µM | TGI [45]: 28.1 µM | GI50 [46]: 1.73 µM | TGI [46]: 3.92 µM | GI50 [47]: 2 µM | TGI [47]: 4.75 µM | GI50 [48]: 2.77 µM | TGI [48]: 8.72 µM | GI50 [49]: 2.1 µM | TGI [49]: 4.6 µM | GI50 [50]: 1.96 µM | TGI [50]: 5.15 µM | GI50 [51]: 1890 nM | TGI [51]: 4.05 µM | GI50 [52]: 1.81 µM | TGI [52]: 4.07 µM | GI50 [53]: 2.28 µM | TGI [53]: 6.58 µM | GI50 [54]: 12.2 µM | TGI [54]: 45.5 µM | GI50 [55]: 3.22 µM | TGI [55]: 15 µM | GI50 [56]: 10.8 µM | TGI [56]: 49.5 µM

— PubChem BioAssay (NCI)
